What was measured:
[1] = target: purified human, His-tagged PRC2 complex (Homo sapiens, UniProt O75530+Q15910); assay: Hot Spot HMT assay: inhibition of PRC2 enzymatic activity (transfer of tritiated methyl from SAM to core histone, filter binding); type: biochemical; details: Inhibition of PRC2-mediated enzymatic activity; 10 nM PRC2 complex, 0.05 mg/ml core histone H3, 1 uM 3H-SAM, 1 hr at 30°C
How it was run: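 Five-subunit complex (His-EZH2, Flag-EED, His-SUZ12, His-AEBP2, His-RbAp48) at 10 nM with 0.05 mg/ml core histone H3, pH 8 Tris buffer, 1% DMSO; 20 min compound pre-incubation at 30°C. Started with 1 uM [3H]-SAM, 1 hr at 30°C; tritiated H3 counted by scintillation. Compounds diluted from 1.0 µM top concentration.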

Karpas 422 cells = assay: Karpas 422 cell viability, CTG (Cell Titre Glo) assay; type: cell-based, human; details: Homo sapiens; Inhibition of proliferation of Karpas 422 cells (EZH2 Y641N); viability measured Day 4, Day 7 or Day 11, time point of the tabulated values not stated
Description: Karpas 422 cell line is a human B cell non-Hodgkin's lymphoma cell line established from a patient having DLBCL. This EZH2 heterozygotic cell line expresses a mutant form of EZH2 enzyme (Y641N) that increases histone H3 methylation and this mutation has been implicated in the tumorgenesis of lymphomas, such as DLBCL.
Karpas 422 cells (PHE cat no., 06101702) were cultured in RPMI medium supplemented with 20% fetal bovine serum and 1% penicillin/1% streptomycin and plated at a density of 1000 cells/90 µl/well in 96 well white assay plates. A dose response curve for compounds of the present invention was determined by adding a 10µl aliquot of stock solutions of varying concentrations of compounds to the same medium in each well, over a concentration range of 10µM using 3-fold dilutions to a final concentration of 1.5nM. The plates were incubated at 37° C for predetermined time periods, Day 4, Day 7, or Day 11, and the viability of the cells was measured using a CTG assay kit (Cell Titre Glo; Promega cat.no G7573) on Day 4 and Day 7 in accordance with the manufacturer's instructions.
For the viability assay for the Day 11 plates, the plates were subjected to centrifugation at 1100 rpm for five minutes on Day 7 and the supernatant was removed by aspiration. The cells were resuspended in 90 µl aliquot of the appropriate growth medium lacking the compound followed by addition of 10 µl of a 10X stock of the same compound at the same concentration. The viability of the Day 11 cells was measured using the CTG assay kit described above in accordance with the manufacturer's instructions. The IC50 values for each compound at each predetermined time point were calculated using Graph pad PRISM software and the results are shown in Table 15. A = ≤250 nM; B = […] - ≤500 nM; and C = >500 nM.

purified human, His-tagged PRC2 complex, sequence (Q15910 whole entry): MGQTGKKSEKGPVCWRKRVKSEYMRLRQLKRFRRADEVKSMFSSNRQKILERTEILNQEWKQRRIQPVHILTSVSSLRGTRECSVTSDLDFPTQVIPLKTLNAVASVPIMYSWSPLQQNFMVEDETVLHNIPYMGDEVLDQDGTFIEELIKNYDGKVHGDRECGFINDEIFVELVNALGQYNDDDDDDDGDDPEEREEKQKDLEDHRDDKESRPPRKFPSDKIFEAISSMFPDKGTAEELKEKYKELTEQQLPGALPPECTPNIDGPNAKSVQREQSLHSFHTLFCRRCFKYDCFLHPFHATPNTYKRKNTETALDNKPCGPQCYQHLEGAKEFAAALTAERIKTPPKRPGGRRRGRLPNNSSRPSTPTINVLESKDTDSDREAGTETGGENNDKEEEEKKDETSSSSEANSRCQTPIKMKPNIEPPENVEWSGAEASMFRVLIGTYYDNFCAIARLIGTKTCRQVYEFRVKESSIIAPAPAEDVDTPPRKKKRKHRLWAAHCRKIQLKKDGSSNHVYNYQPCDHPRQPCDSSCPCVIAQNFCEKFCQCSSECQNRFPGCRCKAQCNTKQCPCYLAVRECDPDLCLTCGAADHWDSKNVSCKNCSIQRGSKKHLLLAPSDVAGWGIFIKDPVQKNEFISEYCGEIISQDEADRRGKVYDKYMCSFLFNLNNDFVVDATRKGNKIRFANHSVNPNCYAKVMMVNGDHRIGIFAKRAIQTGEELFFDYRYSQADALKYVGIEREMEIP
purified human, His-tagged PRC2 complex, sequence (O75530 whole entry): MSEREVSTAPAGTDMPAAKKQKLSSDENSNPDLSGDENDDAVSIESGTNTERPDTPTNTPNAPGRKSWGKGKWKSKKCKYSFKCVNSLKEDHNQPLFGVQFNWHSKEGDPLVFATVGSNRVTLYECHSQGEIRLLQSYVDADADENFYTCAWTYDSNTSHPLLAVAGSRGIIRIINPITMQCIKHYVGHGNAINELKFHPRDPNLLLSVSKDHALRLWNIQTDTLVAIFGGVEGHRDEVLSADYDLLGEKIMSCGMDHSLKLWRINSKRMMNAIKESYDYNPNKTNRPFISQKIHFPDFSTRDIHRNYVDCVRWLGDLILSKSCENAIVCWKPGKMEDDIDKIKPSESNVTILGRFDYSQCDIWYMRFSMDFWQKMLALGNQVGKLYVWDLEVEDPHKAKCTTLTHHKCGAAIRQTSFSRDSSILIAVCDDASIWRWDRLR
purified human, His-tagged PRC2 complex, sequence (Q15022 whole entry partner): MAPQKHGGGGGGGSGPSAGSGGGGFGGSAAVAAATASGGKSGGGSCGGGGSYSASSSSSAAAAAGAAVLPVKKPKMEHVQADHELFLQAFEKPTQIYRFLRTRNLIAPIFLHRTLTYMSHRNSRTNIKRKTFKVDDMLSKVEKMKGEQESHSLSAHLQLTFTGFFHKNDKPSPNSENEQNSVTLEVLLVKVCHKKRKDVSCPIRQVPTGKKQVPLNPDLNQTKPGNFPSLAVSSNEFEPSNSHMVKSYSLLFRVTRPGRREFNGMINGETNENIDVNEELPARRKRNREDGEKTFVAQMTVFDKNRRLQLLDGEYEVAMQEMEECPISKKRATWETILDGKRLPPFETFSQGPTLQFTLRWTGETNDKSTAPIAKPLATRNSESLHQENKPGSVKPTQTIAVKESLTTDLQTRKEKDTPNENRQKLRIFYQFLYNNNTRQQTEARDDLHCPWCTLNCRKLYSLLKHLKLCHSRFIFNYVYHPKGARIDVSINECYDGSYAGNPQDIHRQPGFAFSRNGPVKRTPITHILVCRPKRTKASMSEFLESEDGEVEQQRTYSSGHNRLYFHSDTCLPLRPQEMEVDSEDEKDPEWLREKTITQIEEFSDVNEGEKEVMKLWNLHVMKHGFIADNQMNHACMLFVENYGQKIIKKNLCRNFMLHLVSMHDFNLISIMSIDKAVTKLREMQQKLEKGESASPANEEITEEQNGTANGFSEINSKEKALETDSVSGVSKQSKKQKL
purified human, His-tagged PRC2 complex, sequence (Q6ZN18 whole entry partner): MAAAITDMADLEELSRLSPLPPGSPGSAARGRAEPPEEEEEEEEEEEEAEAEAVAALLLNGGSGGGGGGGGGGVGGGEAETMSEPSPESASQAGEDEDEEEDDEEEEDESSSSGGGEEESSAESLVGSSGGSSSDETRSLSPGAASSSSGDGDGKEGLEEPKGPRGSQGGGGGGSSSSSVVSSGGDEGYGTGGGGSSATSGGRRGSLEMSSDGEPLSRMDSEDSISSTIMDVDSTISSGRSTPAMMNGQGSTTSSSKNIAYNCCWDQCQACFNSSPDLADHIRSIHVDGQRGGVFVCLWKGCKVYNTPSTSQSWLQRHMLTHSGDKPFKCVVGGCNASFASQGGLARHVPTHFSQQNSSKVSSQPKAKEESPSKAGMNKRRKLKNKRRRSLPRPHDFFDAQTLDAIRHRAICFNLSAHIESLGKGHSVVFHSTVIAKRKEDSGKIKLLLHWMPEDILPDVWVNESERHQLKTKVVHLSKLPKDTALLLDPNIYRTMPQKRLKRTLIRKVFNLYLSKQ
purified human, His-tagged PRC2 complex, sequence (Q09028 whole entry partner): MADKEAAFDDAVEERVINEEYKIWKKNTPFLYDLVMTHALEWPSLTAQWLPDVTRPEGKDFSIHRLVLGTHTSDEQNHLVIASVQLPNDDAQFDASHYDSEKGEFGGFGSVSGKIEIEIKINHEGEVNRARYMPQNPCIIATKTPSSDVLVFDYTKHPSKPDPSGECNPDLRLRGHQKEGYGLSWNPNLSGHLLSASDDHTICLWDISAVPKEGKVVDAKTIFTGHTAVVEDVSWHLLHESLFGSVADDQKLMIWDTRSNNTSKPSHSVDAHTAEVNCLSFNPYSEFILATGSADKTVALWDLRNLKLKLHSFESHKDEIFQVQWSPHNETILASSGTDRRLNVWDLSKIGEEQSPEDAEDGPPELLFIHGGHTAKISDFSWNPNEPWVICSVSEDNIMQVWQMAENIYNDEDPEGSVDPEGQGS

IC50 [1] | IC50 (Karpas 422 cells) | Structure (SMILES)
< 100 nM | 250 to 500 nM | N#Cc1cn2c(NCc3c(F)ccc4c3CCO4)ncc(-c3cccnc3C(F)F)c2n1 [Example 64, 8-(2-(difluoromethyl)pyridin-3-yl)-5-(((5-fluoro-2,3-dihydrobenzofuran-4-yl)methyl)amino)imidazo[1,2-c]pyrimidine-2-carbonitrile]
100 to 500 nM | > 500 nM | Cc1nn(C[C@H](C)O)c(C)c1-c1cnc(NCc2c(F)ccc3c2CCO3)n2cc(C#N)nc12 [Example 65, (S)-5-(((5-fluoro-2,3-dihydrobenzofuran-4-yl)methyl)amino)-8-(1-(2-hydroxypropyl)-3,5-dimethyl-1H-pyrazol-4-yl)imidazo[1,2-c]pyrimidine-2-carbonitrile]
< 100 nM | > 500 nM | Cc1nn(C)cc1-c1cnc(NCc2c(F)ccc3c2CCO3)n2cc(C#N)nc12 [Example 72, 8-(1,3-dimethyl-1H-pyrazol-4-yl)-5-(((5-fluoro-2,3-dihydrobenzofuran-4-yl)methyl)amino)imidazo[1,2-c]pyrimidine-2-carbonitrile]
< 100 nM | ≤ 250 nM | CS(=O)(=O)c1ccc(-c2cnc(NCc3c(F)ccc4c3CCO4)n3cc(C#N)nc23)cc1 [Example 73, 5-(((5-fluoro-2,3-dihydrobenzofuran-4-yl)methyl)amino)-8-(4-(methylsulfonyl)phenyl)imidazo[1,2-c]pyrimidine-2-carbonitrile]
100 to 500 nM | ≤ 250 nM | Cc1cc(CN(C)C)c(F)cc1-c1cnc(NCc2c(F)ccc3c2CCO3)n2cc(C#N)nc12 [Example 84, 8-(4-((dimethylamino)methyl)-5-fluoro-2-methylphenyl)-5-(((5-fluoro-2,3-dihydrobenzofuran-4-yl)methyl)amino)imidazo[1,2-c]pyrimidine-2-carbonitrile]
< 100 nM | ≤ 250 nM | COc1ncc(-c2cnc(NCc3c(F)ccc4c3CCO4)n3cc(C#N)nc23)c(C)n1 [Example 88, 5-(((5-fluoro-2,3-dihydrobenzofuran-4-yl)methyl)amino)-8-(2-methoxy-4-methylpyrimidin-5-yl)imidazo[1,2-c]pyrimidine-2-carbonitrile]
< 100 nM | ≤ 250 nM | Cc1nc(OC(C)C)ncc1-c1cnc(NCc2c(F)ccc3c2CCO3)n2cc(C#N)nc12 [Example 89, 5-(((5-fluoro-2,3-dihydrobenzofuran-4-yl)methyl)amino)-8-(2-isopropoxy-4-methylpyrimidin-5-yl)imidazo[1,2-c]pyrimidine-2-carbonitrile]
< 100 nM | 250 to 500 nM | Cc1cncc(-c2cnc(NCc3c(F)ccc4c3CCO4)n3cc(C#N)nc23)c1 [Example 96, 5-(((5-fluoro-2,3-dihydrobenzofuran-4-yl)methyl)amino)-8-(5-methylpyridin-3-yl)imidazo[1,2-c]pyrimidine-2-carbonitrile]
< 100 nM | ≤ 250 nM | N#Cc1cn2c(NCc3c(F)ccc4c3CCO4)ncc(-c3cncc(F)c3)c2n1 [Example 97, 5-(((5-fluoro-2,3-dihydrobenzofuran-4-yl)methyl)amino)-8-(5-fluoropyridin-3-yl)imidazo[1,2-c]pyrimidine-2-carbonitrile]
< 100 nM | ≤ 250 nM | Cc1ccncc1-c1cnc(NCc2c(F)ccc3c2CCO3)n2cc(C#N)nc12 [Example 98, 5-(((5-fluoro-2,3-dihydrobenzofuran-4-yl)methyl)amino)-8-(4-methylpyridin-3-yl)imidazo[1,2-c]pyrimidine-2-carbonitrile]
< 100 nM | ≤ 250 nM | N#Cc1cn2c(NCc3c(F)ccc4c3CCO4)ncc(-c3cccnc3)c2n1 [Example 100, 5-(((5-fluoro-2,3-dihydrobenzofuran-4-yl)methyl)amino)-8-(pyridin-3-yl)imidazo[1,2-c]pyrimidine-2-carbonitrile]
100 to 500 nM | > 500 nM | N#Cc1cn2c(NCc3c(F)ccc4c3CCO4)ncc(-c3cnn(C4COC4)c3)c2n1 [Example 106, 5-(((5-fluoro-2,3-dihydrobenzofuran-4-yl)methyl)amino)-8-(1-(oxetan-3-yl)-1H-pyrazol-4-yl)imidazo[1,2-c]pyrimidine-2-carbonitrile]

Second part, the compound before the results:

Structure (SMILES) | IC50 [1] | IC50 (Karpas 422 cells)
CN(C)Cc1ncc(-c2cnc(NCc3c(F)ccc4c3CCO4)n3cc(C#N)nc23)cc1F [Example 40, 8-(6-((dimethylamino)methyl)-5-fluoropyridin-3-yl)-5-(((5-fluoro-2,3-dihydrobenzofuran-4-yl)methyl)amino)imidazo[1,2-c]pyrimidine-2-carbonitrile] | < 100 nM | ≤ 250 nM
Cc1cc(-c2cnc(NCc3c(F)ccc4c3CCO4)n3cc(C#N)nc23)cnn1 [Example 41, 5-(((5-fluoro-2,3-dihydrobenzofuran-4-yl)methyl)amino)-8-(6-methylpyridazin-4-yl)imidazo[1,2-c]pyrimidine-2-carbonitrile] | < 100 nM | ≤ 250 nM
CN(C)C(=O)c1ccc(-c2cnc(NCc3c(F)ccc4c3CCO4)n3cc(C#N)nc23)c(F)c1F [Example 42, 4-(2-cyano-5-(((5-fluoro-2,3-dihydrobenzofuran-4-yl)methyl)amino)imidazo[1,2-c]pyrimidin-8-yl)-2,3-difluoro-N,N-dimethylbenzamide] | < 100 nM | ≤ 250 nM
Cc1cc(C(=O)N(C)C)c(F)cc1-c1cnc(NCc2c(F)ccc3c2CCO3)n2cc(C#N)nc12 [Example 43, 4-(2-cyano-5-(((5-fluoro-2,3-dihydrobenzofuran-4-yl)methyl)amlno)lmldazo[1,2-c]pyrlmldln-8-yl)-2-fluoro-N,N,5-trimethylbenzamide] | < 100 nM | ≤ 250 nM
Cc1cc(C(=O)N(C)C)ccc1-c1cnc(NCc2c(F)ccc3c2CCO3)n2cc(C#N)nc12 [Example 44, 4-(2-cyano-5-(((5-fluoro-2,3-dihydrobenzofuran-4-yl)methyl)amlno)lmldazo[1,2-c]pyrlmldln-8-yl)-N,N,3-trimethylbenzamide] | < 100 nM | ≤ 250 nM
CN(C)C(=O)c1c(F)cc(-c2cnc(NCc3c(F)ccc4c3CCO4)n3cc(C#N)nc23)cc1F [Example 45, 4-(2-cyano-5-(((5-fluoro-2,3-dihydrobenzofuran-4-yl)methyl)amino)imidazo[1,2-c]pyrimidin-8-yl)-2,6-difluoro-N,N-dimethylbenzamide] | < 100 nM | ≤ 250 nM
COC1CCN(Cc2ccc(-c3cnc(NCc4c(F)ccc5c4CCO5)n4cc(C#N)nc34)cc2)C1 (stereo not drawn) [Example 53, 5-(((5-fluoro-2,3-dihydrobenzofuran-4-yl)methyl)amino)-8-(4-((3-methoxypyrrolidin-1-yl)methyl)phenyl)imidazo[1,2-c]pyrimidine-2-carbonitrile] | < 100 nM | ≤ 250 nM
N#Cc1cn2c(NCc3c(F)ccc4c3CCO4)ncc(-c3ccc(CN4CCC(F)C4)cc3)c2n1 (stereo not drawn) [Example 54, 5-(((5-fluoro-2,3-dihydrobenzofuran-4-yl)methyl)amino)-8-(4-((3-fluoropyrrolidin-1-yl)methyl)phenyl)imidazo[1,2-c]pyrimidine-2-carbonitrile] | < 100 nM | ≤ 250 nM
CNS(=O)(=O)c1ccc(-c2cnc(NCc3c(F)ccc4c3CCO4)n3cc(C#N)nc23)cc1 [Example 59, 4-(2-cyano-5-(((5-fluoro-2,3-dihydrobenzofuran-4-yl)methyl)amino)imidazo[1,2-c]pyrimidin-8-yl)-N-methylbenzenesulfonamide] | < 100 nM | 250 to 500 nM

Source: patent publication EP4043466B1, “PRC2 INHIBITORS” (Mirati Therapeutics, Inc., priority 2018, dated 2019)
